pKi: −log10 of the molar value.
Target: T1, Regulator of G-protein signaling 16 (Homo sapiens, UniProt O15492)
T1 sequence (O15492 whole entry): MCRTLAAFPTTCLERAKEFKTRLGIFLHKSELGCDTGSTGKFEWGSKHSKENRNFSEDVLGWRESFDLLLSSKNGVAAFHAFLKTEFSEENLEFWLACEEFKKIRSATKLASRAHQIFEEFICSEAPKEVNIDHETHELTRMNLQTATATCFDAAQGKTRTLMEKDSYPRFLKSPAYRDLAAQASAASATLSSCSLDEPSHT
Assay: small molecules altering RGS16 interaction with Galphao – biochemical, multiplexed bead flow cytometry, SAR compounds, SAR follow-up (AID 2298)

SMILES | pKi
NS(=O)(=O)c1ccc(N=NCc2ccc(O)c(O)c2O)c([N+](=O)[O-])c1 [4-[[(E)-(2,3-dihydroxy-4-oxo-1-cyclohexa-2,5-dienylidene)methyl]hydrazo]-3-nitrobenzenesulfonamide] | 7.70
O=C1C(Cl)=C(N2CCCCC2)C(=O)C(Cl)=C1c1cnc(N2CCCCC2)s1 [MLS000550549] | 7.00

Reference: BindingDB's records for doi:10.7270/Q2QR4VJR (Nmmlsc, 2010)
